{
  "source": "the METLIN SMRT retention time set (Domingo-Almenara et al. 2019)",
  "data": [
    {"assay": "gradient 5% acetonitrile 3 min, to 50% in 2 min, to 85% in 15 min, held 3 min, 100 µL/min", "settings": "column: Zorbax Extend-C18 2.1 x 50 mm; eluents: water / acetonitrile, 0.1% formic acid", "method_in_brief": "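Mixtures of ~100 pure standards were chromatographed on a Zorbax Extend-C18 column (2.1 × 50 mm, 1.8 μm) at 100 μL/min using water and acetonitrile, each with 0.1% formic acid. Detection used a quadrupole time-of-flight mass spectrometer in positive and negative ionization mode, and data collection spanned 3 months. Retention time was obtained from adduct peaks picked computationally and each checked manually.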", "units": {"RP-LC retention time": "s"}, "values": [
      {"smiles": "COc1ccc(CNC(=O)c2ccc3c(c2)N(C)C(=O)C2CCCCN32)c(OC)c1", "note": "(stereo not drawn)", "RP-LC retention time": 868},
      {"smiles": "COc1nn(C)cc1C(=O)N1CCc2nc(NC(=O)c3ccco3)sc2C1", "RP-LC retention time": 599},
      {"smiles": "COc1ccc(OC)c(NC(=O)CN2C(=O)CCc3cc(Br)ccc32)c1", "RP-LC retention time": 962},
      {"smiles": "Cc1cc(NC(=O)CSc2cn(Cc3cccc(F)c3)c3ccccc23)no1", "RP-LC retention time": 951},
      {"smiles": "Cc1c(C(=O)N2CCSCC2)cnn1-c1cc(-c2nc(C3CC3)no2)ccn1", "RP-LC retention time": 949},
      {"smiles": "CCCNC(=O)c1cc2c(s1)N(C)CCC2", "RP-LC retention time": 771},
      {"smiles": "O=C(c1cccc(F)c1)N1CCC(n2c(-c3ccco3)nc3cccnc32)C1", "note": "(stereo not drawn)", "RP-LC retention time": 744},
      {"smiles": "COc1cccc(NC(=O)Cn2c(C)cc(-c3nnc(-c4ccc(F)cc4)o3)c2C)c1", "RP-LC retention time": 943},
      {"smiles": "CN1CCc2nc(C(=O)N[C@@H]3C[C@@H](C(=O)N(C)C)CC[C@@H]3NC(=O)C(=O)Nc3ccc(Cl)cn3)sc2C1", "RP-LC retention time": 652},
      {"smiles": "Cn1cc(CCNS(=O)(=O)c2cccc3nsnc23)c2cccnc21", "RP-LC retention time": 671},
      {"smiles": "COCCn1ccc2nc(C)c(C(=O)NCc3ccc(SC)cc3)cc2c1=O", "RP-LC retention time": 712},
      {"smiles": "CCCn1cc(C(=O)Nc2cc(OC)cc(OC)c2)c(=O)c2ccc(C)nc21", "RP-LC retention time": 1170},
      {"smiles": "Cc1ccc(-c2nnc(-c3ccc(Cl)c(S(=O)(=O)N4CCCC4)c3)o2)cc1", "RP-LC retention time": 1150},
      {"smiles": "Cc1ccc(NC(=O)N2CCCC2c2cc(C)on2)c(C)c1", "note": "(stereo not drawn)", "RP-LC retention time": 823},
      {"smiles": "CCc1ccc(NS(=O)(=O)c2cc(-c3[nH]ncc3C(=O)N3CCCCC3)oc2C)cc1", "RP-LC retention time": 822},
      {"smiles": "Cc1nccn1C1CN(S(=O)(=O)c2cccc(F)c2)C1", "RP-LC retention time": 604},
      {"smiles": "O=C(CCC1CCN(S(=O)(=O)c2ccccc2)CC1)NC1CCCCCC1", "RP-LC retention time": 958},
      {"smiles": "Cc1cccc(CN2CCN(CC(=O)NC3CCN(Cc4ccccc4)CC3)C(=O)C2=O)c1", "RP-LC retention time": 609},
      {"smiles": "COc1cccc(-n2cc(C(=O)OCc3ccccn3)c3ccccc3c2=O)c1", "RP-LC retention time": 854},
      {"smiles": "O=C(Nc1ccc2c(c1)C(=O)N1CCCCC1CCO2)Nc1ccccc1C(F)(F)F", "note": "(stereo not drawn)", "RP-LC retention time": 832},
      {"smiles": "Cc1nnc(N2CCCC(C(=O)NCc3ccc(OC(C)C)cc3)C2)c2nn(-c3ccccc3)c(C)c12", "note": "(stereo not drawn)", "RP-LC retention time": 764},
      {"smiles": "COc1ccccc1-c1nnc(-c2ccc(OC)c(S(=O)(=O)N(C)C)c2)o1", "RP-LC retention time": 798},
      {"smiles": "Cc1sc2ccn(C)c(=O)c2c1C(=O)NCCN1CCc2ccccc2C1", "RP-LC retention time": 687},
      {"smiles": "Cc1cc(NC(=O)C2CCc3nc(N4CCOCC4)ncc3C2)ccc1F", "note": "(stereo not drawn)", "RP-LC retention time": 797},
      {"smiles": "COCCCN1CN=C(Nc2nc(C)c3cc(OC)ccc3n2)NC1", "RP-LC retention time": 643},
      {"smiles": "Cc1sc(NC(=O)CC(C)C)nc1-c1ccc2c(c1)NC(=O)CO2", "RP-LC retention time": 822},
      {"smiles": "O=C(NCc1ccccn1)c1cc(-c2cccnc2)nc2ccc(Cl)cc12", "RP-LC retention time": 642},
      {"smiles": "CCc1ccccc1S(=O)(=O)N1CCC(c2cc(N)on2)CC1", "RP-LC retention time": 824},
      {"smiles": "O=[N+]([O-])c1cccc(-c2ccc(SCc3ccccn3)nn2)c1", "RP-LC retention time": 637},
      {"smiles": "Cc1ccc(CNC(=O)c2ccc(=O)n(CCN3CCCC3)c2)cc1", "RP-LC retention time": 614},
      {"smiles": "CCCn1cc(C(=O)NCCN2CCOCC2)c2cccnc21", "RP-LC retention time": 586},
      {"smiles": "CCOc1ccc(Cn2c(=O)c3sccc3n(Cc3nc(-c4cccc(C)c4)no3)c2=O)cc1", "RP-LC retention time": 1180},
      {"smiles": "Cc1noc(-c2cccc(OC3CN(C(=O)Nc4ccccc4)C3)c2)n1", "RP-LC retention time": 844},
      {"smiles": "O=C(NCC(c1ccc2c(c1)OCO2)N1CCN(c2ccc(F)cc2)CC1)C1CC1", "note": "(stereo not drawn)", "RP-LC retention time": 682},
      {"smiles": "CCOCCCn1c(SCc2nc(-c3ccc(F)cc3)no2)nc2ccccc2c1=O", "RP-LC retention time": 1150},
      {"smiles": "Cc1ccc(CNC(=O)Nc2ccc(-c3nc(-c4ccc(C)cc4C)co3)cc2)cc1", "RP-LC retention time": 1240},
      {"smiles": "Cc1ccc(CN2CC[C@]3(CO)CN(Cc4ccccc4)C[C@@H]3C2)cc1C", "RP-LC retention time": 570},
      {"smiles": "CCN1C(=O)CCc2cc(NS(=O)(=O)c3ccccc3Cl)ccc21", "RP-LC retention time": 751},
      {"smiles": "CCn1cnc(S(=O)(=O)N2CCC(C(=O)Nc3cc(C)cc(C)c3)CC2)c1", "RP-LC retention time": 797},
      {"smiles": "O=C(C1CCCN1)N1CCC(OCc2nc(-c3ccncc3)no2)CC1", "note": "(stereo not drawn)", "RP-LC retention time": 565},
      {"smiles": "COc1ccc(NC(=O)N2[C@H]3CC[C@@H]2c2cnc(-c4ccccc4)nc2C3)c(OC)c1", "RP-LC retention time": 894},
      {"smiles": "O=C(Cn1cccc1-c1nnc(-c2ccccc2)o1)N1CCN(c2ccc(F)cc2)CC1", "RP-LC retention time": 996},
      {"smiles": "CC1=NS(=O)(=O)N(Cc2ccccc2)C=C1C(=O)OCc1ccc(Br)cc1", "RP-LC retention time": 1200},
      {"smiles": "O=C(CN1CCC2(CC1)N=C(c1cccc(F)c1)C(=O)N2)Nc1ccc(Br)cc1F", "RP-LC retention time": 711},
      {"smiles": "O=C(c1ccccc1Cl)N1CCN(S(=O)(=O)c2cc3c4c(c2)CCC(=O)N4CCC3)CC1", "RP-LC retention time": 796},
      {"smiles": "Cc1ccc(CN2CCC(CNC(=O)c3c(C)oc4c3C3=NCCN3C=N4)C2)cc1", "note": "(stereo not drawn)", "RP-LC retention time": 597},
      {"smiles": "C[C@H]1CN(C(=O)CSc2ccccc2)C[C@@H]1c1nc(-c2cccnc2)no1", "RP-LC retention time": 823},
      {"smiles": "CCCNC(=O)C1CCCN1S(=O)(=O)c1cc(C(=O)OCC)n(C)c1", "note": "(stereo not drawn)", "RP-LC retention time": 762},
      {"smiles": "Cc1noc(C)c1Cc1ccc(C(=O)NCCc2noc(C3CC3)n2)o1", "RP-LC retention time": 745},
      {"smiles": "Cn1cccc1C(=O)N1CC(Oc2cccc(-c3nc(-c4ccccc4)no3)c2)C1", "RP-LC retention time": 1220},
      {"smiles": "CCOC(=O)C1CCN(c2nc(-c3ccc(OC)cc3)nc3ccccc23)CC1", "RP-LC retention time": 790},
      {"smiles": "O=S(=O)(Cc1ccccc1F)N1CCC(OCCOCc2ccccc2)CC1", "RP-LC retention time": 1010},
      {"smiles": "CC(C)(C)NC(=O)N1CCC(CNC(=O)C(=O)Nc2cc(F)ccc2F)CC1", "RP-LC retention time": 811},
      {"smiles": "Cc1cnc(C(=O)NCC2Cn3cccc3C(=O)N2CC(C)C)cn1", "note": "(stereo not drawn)", "RP-LC retention time": 706},
      {"smiles": "COc1cccc(N2CC(NC(=O)Nc3cccnc3)CC2=O)c1", "note": "(stereo not drawn)", "RP-LC retention time": 544},
      {"smiles": "Cc1ccc(C)c(NC(=O)N2C[C@@H](F)C[C@H]2C(=O)N2CCCCC2)c1", "RP-LC retention time": 730},
      {"smiles": "CN(CC1CCOCC1)S(=O)(=O)c1ccccc1F", "RP-LC retention time": 804},
      {"smiles": "CCc1ccccc1NC(=O)NCC(c1cccnc1)c1c[nH]c2ccccc12", "note": "(stereo not drawn)", "RP-LC retention time": 669},
      {"smiles": "O=C(NCc1ccc(Cl)cc1)c1ccc2c(c1)N(CC(=O)N1CCCC1)C(=O)CO2", "RP-LC retention time": 768},
      {"smiles": "N#Cc1ccc(-c2nc(C3CC(=O)N(c4ccc(Cl)cc4)C3)no2)cc1", "note": "(stereo not drawn)", "RP-LC retention time": 996},
      {"smiles": "O=C1CCCN1CCCN(CC(=O)N1CCNCC1)C(=O)c1ccc(C(F)(F)F)cc1", "RP-LC retention time": 602},
      {"smiles": "Cc1cc(C)cc(Nc2c(C(=O)N3CCCC(C)C3)cnc3nc(C)ccc23)c1", "note": "(stereo not drawn)", "RP-LC retention time": 672},
      {"smiles": "CCOc1ccc(Nc2c3ccccc3nc3ccccc23)cc1", "RP-LC retention time": 795},
      {"smiles": "O=C(Cn1cccc1-c1nnc(C2CCC2)o1)NCc1ccccc1Cl", "RP-LC retention time": 907},
      {"smiles": "CCn1ccc2cc(S(=O)(=O)N3CCCC(C(=O)N4CCN(c5ccccn5)CC4)C3)ccc21", "note": "(stereo not drawn)", "RP-LC retention time": 609},
      {"smiles": "Cc1ccc(C)c(NC(=O)Cn2nc3cc(C)nc(-c4ccccc4)n3c2=O)c1", "RP-LC retention time": 868},
      {"smiles": "COC(=O)c1ccc2c(=O)n(-c3ccc(Cl)cc3)c(N3CCCN(C)CC3)nc2c1", "RP-LC retention time": 670},
      {"smiles": "Cc1cccn2cc(-c3cccc(NS(=O)(=O)c4ccc(Cl)c(Cl)c4)c3)nc12", "RP-LC retention time": 747},
      {"smiles": "O=C(Nc1ccccc1)c1cc(C2CC2)on1", "RP-LC retention time": 912},
      {"smiles": "Cc1ccccc1NC(=O)C1CCN(S(=O)(=O)c2cc(C(=O)N3CCCC3)cs2)CC1", "RP-LC retention time": 760},
      {"smiles": "O=S(=O)(c1ccc2nc(N3CCN(c4cccc(Cl)c4)CC3)ccc2c1)N1CCCC1", "RP-LC retention time": 1100},
      {"smiles": "CCn1cnc2ccc(-c3noc(Cc4ccccc4Cl)n3)cc21", "RP-LC retention time": 774},
      {"smiles": "Cc1ccc(NC(=O)c2c(O)c3cccnc3n(-c3ccc(F)cc3)c2=O)cc1F", "RP-LC retention time": 1340},
      {"smiles": "CC1CC(=O)c2cnn(-c3nc4ccccc4[nH]3)c2C1", "note": "(stereo not drawn)", "RP-LC retention time": 761},
      {"smiles": "O=S(=O)(c1ccc(Cl)c(-c2nnc(-c3ccccc3)o2)c1)N1CCCCC1", "RP-LC retention time": 1130},
      {"smiles": "CCOC(=O)c1c(S(=O)(=O)N2CCC(C(=O)Nc3ccc(C(C)C)cc3)CC2)c(C)n(C)c1C", "RP-LC retention time": 1020},
      {"smiles": "Cc1ccsc1C(=O)Nc1nnc(SCc2nnc(-c3ccc4c(c3)OCO4)o2)s1", "RP-LC retention time": 884},
      {"smiles": "O=C(NCCCn1c(-c2ccncc2)nc2cccnc21)NCc1ccc(F)cc1", "RP-LC retention time": 627},
      {"smiles": "Cc1c(-c2noc(-c3ccc(F)cc3)n2)nnn1-c1ccc(F)cc1", "RP-LC retention time": 1060},
      {"smiles": "Cn1c(CCNC(=O)c2ccc(Cl)s2)nc2cccnc21", "RP-LC retention time": 626},
      {"smiles": "COc1ccc(N2CC(NC(=O)NN3CCOCC3)CC2=O)cc1", "note": "(stereo not drawn)", "RP-LC retention time": 587},
      {"smiles": "O=C(NCc1cccnc1)C1CCN(c2ncnc3c2oc2ccccc23)CC1", "RP-LC retention time": 583},
      {"smiles": "O=C(NCCC1=CCCCC1)c1nc(-c2ccnc(N3CCCC3)c2)no1", "RP-LC retention time": 747},
      {"smiles": "Cc1cc(-c2nnc(-c3ccccc3)o2)c(C)n1CC(=O)Nc1ccc(Cl)cc1", "RP-LC retention time": 1020},
      {"smiles": "O=S(=O)(Nc1ccc(Cn2cncn2)cc1)c1ccc(F)c(Cl)c1", "RP-LC retention time": 758},
      {"smiles": "CCCCNC(=O)Cn1nc2c3cc(-c4ccccc4)nn3ccn2c1=O", "RP-LC retention time": 807},
      {"smiles": "COc1cc(NC(=O)Cn2nc3nc(N4CCCC4)ccn3c2=O)cc(OC)c1", "RP-LC retention time": 643},
      {"smiles": "Cc1ccc(CNC(=O)CN2C(=O)C3CCCCN3c3ccc(S(=O)(=O)N(C)C)cc32)o1", "note": "(stereo not drawn)", "RP-LC retention time": 867}
    ]}
  ]
}
